According to patent publication US7803797B2, “Substituted arylcyclopentenes as therapeutic agents” (Allergan, Inc., priority 2008, dated 2010):

Key:
Format in all cases: in vivo
[1] = test system: laser-induced hypertensive monkeys; experiment: Intraocular pressure (IOP) reduction in laser-induced hypertensive monkeys
normotensive dogs = experiment: Intraocular pressure (IOP) reduction in normotensive dogs
Description: Compounds 14a, 14b, 16a, 16b. 22a, 22b, 33a, 33b, 34a, 34b, 35a, 35b, 46a, 46b, 51a, 51 b, 58a, 58b, 69a, 69b, 70a and 70b from above are tested in vivo to measure its ability to reduce intraocular pressure. Compound 14a is tested in normotensive dogs.

[2] = test system: lashes and adjacent hairs of the eyelids; experiment: Clinical observation of lashes in glaucoma patients treated in one eye; details: glaucoma patients treated in only one eye
Description: In the course of treating patients having glaucoma, treatment may only be appropriate in one eye. […] The lash appearance on the lids of the treated eyes would have appeared quite attractive if it represented a bilateral phenomenon. As a result of its asymmetric nature, the long lashes on one side could be construed as disturbing from a cosmetic standpoint. A systemic examination was preformed as a result of the asymmetric phenomenon. It soon became apparent that this altered appearance was not an isolated finding. […] Definite differences could be identified to varying degrees in the lashes and adjacent hairs of all patients who were taking the drug on a unilateral basis for longer than 6 months.
The changes in the lashes were apparent on gross inspection in several patients once attention was focused on the issue. In those with light colored hair and lashes, the differences were only seen easily with the aid of the high magnification and lighting capabilities of the slit lamp biomicroscope. In the course of glaucoma follow-up examination, attention is generally immediately focused on the eye itself. As a result of the high power magnification needed only one eye is seen at a time and the eye is seen at a high enough power that the lashes are not in focus. […]

Row | Compound | IOP change from baseline [1] | intraocular pressure (IOP) change from baseline (normotensive dogs) | lash appearance, treated eye versus non-treated eye [2]
1 | O=C(OCCO)c1ccc(CCCC2=CC[C@@H](O)[C@@H]2COc2cc(Cl)cc(Cl)c2)s1 [Compound 69a] | decreases from baseline | decreases from baseline | 
2 | O=C(OCCN1CCOCC1)c1ccc(CCCC2=CC[C@@H](O)[C@@H]2COc2cc(Cl)cc(Cl)c2)s1 [Compound 69b] | decreases from baseline | decreases from baseline | 
3 | O=C(OCCN1CCOCC1)c1ccc(CCC[C@H]2C(=O)CC[C@@H]2COc2cc(Cl)cc(CO)c2)s1 [Compound 46b] | decreases from baseline | decreases from baseline | 
4 | O=C(OCCO)c1ccc(CCC[C@@H]2[C@@H](COc3cc(Cl)cc(Cl)c3)[C@H](O)C[C@H]2Cl)s1 [Compound 33a] | decreases from baseline | decreases from baseline | 
5 | O=C(OCCN1CCOCC1)c1ccc(CCC[C@@H]2[C@@H](COc3cc(Cl)cc(Cl)c3)[C@H](O)C[C@H]2F)s1 [Compound 70b] | decreases from baseline | decreases from baseline | 
6 | O=C(OCCN1CCOCC1)c1ccc(CCC[C@@H]2[C@@H](COc3cc(Cl)cc(Cl)c3)[C@H](O)C[C@H]2Cl)s1 [Compound 33b] | decreases from baseline | decreases from baseline | 
7 | COCc1cc(Cl)cc(OC[C@@H]2[C@@H](C/C=C\CCCC(=O)OCCO)[C@H](Cl)C[C@H]2O)c1 [Compound 22a] | decreases from baseline | decreases from baseline | 
8 | O=C(OCCN1CCOCC1)c1ccc(CCC[C@@H]2[C@@H](COc3cc(Cl)cc(CO)c3)CC[C@H]2Cl)s1 [51 b] | decreases from baseline | decreases from baseline | 
9 | O=C(CCC/C=C\C[C@@H]1[C@@H](COc2cc(Cl)cc(CCO)c2)[C@H](O)C[C@H]1Cl)OCCN1CCOCC1 [Compound 14b] | decreases from baseline | decreases from baseline | 
10 | CC(=O)OCCc1cc(Cl)cc(OC[C@@H]2[C@@H](C/C=C\CCCC(=O)OCCO)[C@H](Cl)C[C@H]2O)c1 [Compound 16a] | decreases from baseline | decreases from baseline | 
11 | CC(=O)OCCc1cc(Cl)cc(OC[C@@H]2[C@@H](C/C=C\CCCC(=O)OCCN3CCOCC3)[C@H](Cl)C[C@H]2O)c1 [Compound 16b] | decreases from baseline | decreases from baseline | 
12 | O=C(OCCO)c1ccc(CCC[C@@H]2[C@@H](COc3cc(Cl)cc(Cl)c3)[C@H](O)C[C@H]2F)s1 [Compound 70a] | decreases from baseline | decreases from baseline | 
13 | CCNC(=O)CCC/C=C\C[C@@H]1[C@@H](/C=C/[C@@H](O)CCc2ccccc2)[C@H](O)C[C@@H]1O [bimatoprost] |  |  | longer, thicker, and fuller in the treated eye than in the non-treated eye
14 | Cc1cc(C)cc(OC[C@@H]2[C@@H](CCCc3ccc(C(=O)OCCN4CCOCC4)s3)[C@H](Cl)C[C@H]2O)c1 [Compound 35b] | decreases from baseline | decreases from baseline | 
15 | O=C(CCC/C=C\C[C@@H]1[C@@H](COc2cc(Cl)cc(CCO)c2)[C@H](O)C[C@H]1Cl)OCCO [Compound 14a] | decreases from baseline | decreases from baseline | 
16 | N#C[C@@H]1C[C@@H](O)[C@H](COc2cc(Cl)cc(Cl)c2)[C@H]1CCCc1ccc(C(=O)OCCN2CCOCC2)s1 [Compound 58b] | decreases from baseline | decreases from baseline | 
17 | COCc1cc(Cl)cc(OC[C@@H]2[C@@H](C/C=C\CCCC(=O)OCCN3CCOCC3)[C@H](Cl)C[C@H]2O)c1 [Compound 22b] | decreases from baseline | decreases from baseline | 
18 | Cc1cc(C)cc(OC[C@@H]2[C@@H](CCCc3ccc(C(=O)OCCO)s3)[C@H](Cl)C[C@H]2O)c1 [Compound 35a] | decreases from baseline | decreases from baseline | 
19 | O=C(OCCO)c1ccc(CCC[C@@H]2[C@@H](COc3cc(Cl)cc(CO)c3)CC[C@H]2Cl)s1 [Compound 51a] | decreases from baseline | decreases from baseline | 
20 | O=C(OCCO)c1ccc(CCC[C@H]2C(=O)CC[C@@H]2COc2cc(Cl)cc(CO)c2)s1 [Compound 46a] | decreases from baseline | decreases from baseline | 
21 | N#C[C@@H]1C[C@@H](O)[C@H](COc2cc(Cl)cc(Cl)c2)[C@H]1CCCc1ccc(C(=O)OCCO)s1 [Compound 58a] | decreases from baseline | decreases from baseline | 
